The values that follow come from patent publication US7728146B2, “Enzyme inhibitors” (Probiodrug AG, priority 2006, dated 2010).

Entries after “also recorded” stand apart in the source; their conditions may differ. Where two headings read alike, the source gives them in different places.

The target of series [1] is DP IV (Homo sapiens, UniProt P27487). As to the kind of experiment: DP IV inhibition IC50, parallel-synthesis compounds tested directly following synthesis (without purification). It is filed as biochemical. Also noted: IC50 DP4; other: tested directly following parallel synthesis, without purification; compounds of formula (Ib) from parallel synthesis, tested directly following synthesis. The gist of the method:
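IC50 came from a 4-parameter fit of residual activity (linear 405 nm slopes for pNA release over ~18 min, relative to solvent-only wells). Gly-Pro-pNA was the substrate, cleaved by porcine kidney or recombinant human DP IV at room temperature in HEPES with 5% DMSO; duplicate 1:2 series started at 100 μM final.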

The test system of series [2] is liver cell carcinoma cell line Hep-G2. As to the kind of experiment: Cytotoxicity screening and LD50 determination on Hep-G2 (LDH, CytoTox-One). It is filed as cell-based. The settings on record: 100 μM, Hep-G2. The protocol:
Cytotoxicity of the compounds may be screened using the liver cell carcinoma cell line Hep-G2.
After 24 h of cultivation in a 96 well plate (50 000 cells/well) compounds (dissolved in DMSO) are added and cytotoxicity and vitality of the cells are analysed after another 24 h of cultivation using the CytoTox-One Homogenoeous membrane toxicity assay (Promega).
Three concentrations (100 μM, 2 μM, 40 nM) of each compound are analysed in triplicates. The final DMSO concentration was 1%.
For cytotoxicity the LDH activity in the cell culture media after 24 h of incubation are analysed. The untreated control is set to 0% cytotoxicity. For the 100% value LDH activity of lysed untreated cells are analysed.
For viability cell culture media are removed from the cells and all cells are lysed using the lysis buffer. LDH activity is determined and untreated control is set to 100% viability.
For determination of LD50 the liver carcinoma cell line HEP-G2 and the neuroblastoma cell line SY5Y may be used. The effect of 8 serial dilutions of the compounds (highest concentration 1 mM) is investigated as described above.
The cytotoxicity of certain example compounds (in each case prepared by preparative synthesis) was screened using Hep-G2 cells. Compounds were tested in concentrations of 100 μM, 2 μM and 40 nM.

[3] abbreviates: DP IV inhibition, compounds of formula (Ib) from parallel synthesis, tested directly following synthesis (without purification), read-out: IC50.
Where [4] appears, read: tested directly following parallel synthesis, without purification, read-out: IC50 DP4.

A word on the IC50: it is the concentration at which inhibition is half-maximal. `NCc1c(-c2ccc(Cl)cc2Cl)ncn1CCc1c[nH]c2ccccc12` [Example 1b, C-{5-(2,4-Dichloro-phenyl)-3-[2-(1H-indol-3-yl)-ethyl]-3H-imidazol-4-yl}-methylamine]: the IC50 in series [1] (setting [3]) was determined as 3.7 µM. Further, the “cytotoxic effects (summary in words)” value in series [2] is “Strong cytotoxic effects”. Take `CC(N)c1c(-c2ccc(Cl)cc2Cl)ncn1CCc1ccccc1` (centres unmarked) [Example 2b, 1-[5-(2,4-Dichloro-phenyl)-3-phenethyl-3H-imidazol-4-yl]-ethylamine]: the IC50 in series [1] (setting [3]) turned out to be 32.5 µM. In addition, the “cytotoxic effects (summary in words)” value in series [2] is “No cytotoxic effects”. On to `CC(C)CCn1cnc(-c2ccc(Cl)cc2Cl)c1CN` [Example 7b, C-[5-(2,4-Dichloro-phenyl)-3-(3-methyl-butyl)-3H-imidazol-4-yl]-methylamine], for which, in series [1] (setting [3]), the half-inhibitory concentration (IC50) amounted to 8.2 µM. Moreover, the “cytotoxic effects (summary in words)” value in series [2] is recorded as “Strong cytotoxic effects; also recorded: strongest cytotoxicity”. With `COc1ccc(Cn2cnc(-c3ccc(Cl)cc3Cl)c2CN)c(OC)c1` [Example 8b, C-[5-(2,4-Dichloro-phenyl)-3-(2,4-dimethoxy-benzyl)-3H-imidazol-4-yl]-methylamine], the IC50 in series [1] (setting [3]) was determined as 12.7 µM. Also, the “cytotoxic effects (summary in words)” value in series [2] is reported as “No cytotoxic effects”. On to `CCCCCn1cnc(-c2ccc(Cl)cc2Cl)c1CN` [Example 12b, C-[5-(2,4-Dichloro-phenyl)-3-pentyl-3H-imidazol-4-yl]-methylamine], for which the IC50 in series [1] (setting [3]) was found to be 6.4 µM. Besides, the “cytotoxic effects (summary in words)” value in series [2] is “No cytotoxic effects”.

As to `NCc1c(-c2ccc(Cl)cc2Cl)ncn1CC12CC3CC(CC(C3)C1)C2` [Example 14b, C-[3-Adamantan-1-ylmethyl-5-(2,4-dichloro-phenyl)-3H-imidazol-4-yl]-methylamine], in series [1] (setting [3]), the IC50 worked out at 19 µM. The “cytotoxic effects (summary in words)” value in series [2] is reported as “No cytotoxic effects”. On to `Cc1ccccc1Cn1cnc(-c2ccc(Cl)cc2Cl)c1C(C)N` (centres unmarked) [Example 15b, 1-[5-(2,4-Dichloro-phenyl)-3-(2-methyl-benzyl)-3H-imidazol-4-yl]-ethylamine], for which the IC50 in series [1] (setting [3]) came out at 19 µM. Further, the “cytotoxic effects (summary in words)” value in series [2] was “No cytotoxic effects”. In the case of `NCc1c(-c2ccc(F)cc2F)ncn1Cc1ccccn1` [Example 88a, C-[5-(2,4-Difluoro-phenyl)-3-pyri-din-2-yl-methyl-3H-imid-azol-4-yl]-methyl-amine], in series [1] (setting [4]), the IC50 amounted to 29.8 µM.

For the compound `NCc1c(-c2ccc(F)cc2F)ncn1Cc1cccnc1` [Example 89a, C-[5-(2,4-Difluoro-phenyl)-3-pyri-din-3-yl-methyl-3H-imid-azol-4-yl]-methyl-amine], the IC50 in series [1] (setting [4]) was 22.6 µM.

`NCc1c(-c2ccc(Cl)cc2Cl)ncn1Cc1ccc(F)c(F)c1` [Example 92b, C-[5-(2,4-dichloro-phenyl)-3-(3,4-difluoro-benzyl)-3H-imidazol-4-yl]-methylamine]: the IC50 in series [1] (setting [3]) was determined as 1 µM.
